Source: the supplement of paper PMC8967900

Columns and labels:
Test in all cases: selective drug sensitivity score (sDSS, relative to normal bone marrow) (sDSS (score)); higher = more potent and effective on the cell line relative to normal bone marrow cells
Details in all cases: 72 h
[1] = test system: ALL-PO
[2] = test system: KASUMI-2
[3] = test system: NALM-6
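Note: ALL cell lines in 384-well plates, five doses spanning 10,000-fold, each plate scaled between vehicle and 100 µmol/L benzalkonium chloride controls, sDSS an adapted area-under-curve metric.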

SMILES	selective drug sensitivity score [1]	selective drug sensitivity score [2]	selective drug sensitivity score [3]
Cc1ccc(C(=O)N(CCCN)[C@@H](c2oc3cc(Cl)ccc3c(=O)c2Cc2ccccc2)C(C)C)cc1 (top concentration 100 nM)	-0.24	3.56	3.56
C[C@@H](Oc1ccc2[nH]nc(/C=C/c3cnn(CCO)c3)c2c1)c1c(Cl)cncc1Cl (top concentration 1000 nM)	4.96	-7.04	7.16
CCn1c(C(=O)N(C2CC2)C2CC2)cc2c3c(ncn3C)c(Nc3cc(C)n(C)n3)nc21 (top concentration 10000 nM)	8.14	-4.36	-4.36
CNc1nc(-c2ccc3c(N)n[nH]c3c2)cc(N2C[C@@H](C(=O)NC3CCCCC3)CC[C@H]2C)n1 (top concentration 10000 nM)	8.86	7.26	2.96
COc1ccc(Cn2ccc3ccc(C(=O)NO)cc32)cc1 (top concentration 10000 nM)	2.84	-1.06	1.54
N#Cc1ccc(COC[C@H]2O[C@@H](n3c(NCc4ccc(Cl)c(Cl)c4)nc4c(N)ncnc43)[C@H](O)[C@@H]2O)cc1 (top concentration 10000 nM)	4.82	-0.08	5.92
NC[C@@](O)(c1ccc(Cl)cc1)c1ccc(-c2cn[nH]c2)cc1 (top concentration 10000 nM)	3.98	2.78	1.28
O=c1[nH]c(C2CCCN2)nc2c1oc1ccc(Cl)cc12 (centres undefined) (top concentration 10000 nM)	-0.2	7.2	-0.4
NCC(=O)Nc1ccc(-n2nc(C(F)(F)F)cc2-c2ccc3c(ccc4ccccc43)c2)cc1 (top concentration 25000 nM)	7.7	0.1	13.3
Nc1ncnc2c1nc(Cl)n2[C@@H]1O[C@H](CO)[C@@H](O)[C@H]1O [8-chloro-adenosine] (top concentration 50000 nM)	1.6	-1.8	1.1
COc1ccc(S(=O)(=O)Nc2cccnc2Nc2ccc(O)cc2)cc1 [ABT-751] (top concentration 10000 nM)	13.3	4.72	10.7
CC1CCC(n2c3cnccc3c3cnc(Nc4ccc5c(n4)CCN(C(=O)CO)C5)nc32)CC1 (centres undefined) [AMG-925] (top concentration 1000 nM)	11.4	-0.66	4.74
O=C(NC1CCNCC1)c1n[nH]cc1NC(=O)c1c(Cl)cccc1Cl [AT7519] (top concentration 10000 nM)	-14.4	-4.46	-2.76
Cc1cc2c(C(C)C)c(O)c(O)c(C=O)c2c(O)c1-c1c(C)cc2c(C(C)C)c(O)c(O)c(C=O)c2c1O [AT-101] (top concentration 100000 nM)	8.98	-0.32	6.38
N[C@@H]1CCCN(c2c(/C=C3\SC(=O)NC3=O)cccc2-c2ccccc2)C1 [AZD1208] (top concentration 10000 nM)	8.5	-4.4	-4.4
Cc1ncc(-c2ccnc(Nc3ccc(S(C)(=O)=O)cc3)n2)n1C(C)C [AZD-5438] (top concentration 10000 nM)	-6.06	-0.86	1.44
CCN1CCN(Cc2ccc(Nc3ncc(F)c(-c4cc(F)c5nc(C)n(C(C)C)c5c4)n3)nc2)CC1 [Abemaciclib] (top concentration 2500 nM)	-3.36	1.74	-4.46
Cn1ncc(Cl)c1-c1cc(C(=O)N[C@H](CN)Cc2cccc(F)c2)sc1Cl [Afuresertib] (top concentration 1000 nM)	4.26	10.2	4.66
O=C(Nc1cc(Oc2cc(F)c(NC(=O)C3(C(=O)Nc4ccc(F)cc4)CC3)cc2F)ccn1)C1CC1 [Altiratinib] (top concentration 10000 nM)	8.94	-0.66	1.34
CN1CC[C@H](c2c(O)cc(O)c3c(=O)cc(-c4ccccc4Cl)oc23)[C@H](O)C1 [Alvocidib] (top concentration 10000 nM)	-6.7	-2.8	-1.2
CC(C)c1c(C(=O)Nc2ccccc2)c(-c2ccccc2)c(-c2ccc(F)cc2)n1CC[C@@H](O)C[C@@H](O)CC(=O)O [Atorvastatin] (top concentration 10000 nM)	1.1	-3.7	1.4
Nc1ncn([C@@H]2O[C@H](CO)[C@@H](O)[C@H]2O)c(=O)n1 [Azacitidine] (top concentration 10000 nM)	6.94	-0.36	3.34

SMILES	selective drug sensitivity score [1]	selective drug sensitivity score [2]	selective drug sensitivity score [3]
Cc1cc(-c2nc(-c3ccc(OC(F)(F)F)cc3)no2)nn1Cc1ccnc(N2CCN(C3CC3)CC2)c1 [BAY_87-2243] (top concentration 1000 nM)	5.54	-8.66	10
O=C(Nc1cccc(Nc2ncc(Br)c(NCCc3cnc[nH]3)n2)c1)N1CCCC1 [BX-912] (top concentration 10000 nM)	14	5.86	6.46
C=C(c1ccc(C(=O)O)cc1)c1cc2c(cc1C)C(C)(C)CCC2(C)C [Bexarotene] (top concentration 10000 nM)	3.7	-5.3	-3.4
Cn1cnc2c(F)c(Nc3ccc(Br)cc3F)c(C(=O)NOCCO)cc21 [Binimetinib] (top concentration 1000 nM)	3.08	-2.22	5.78
COc1cc(N2CCC(N3CCN(C)CC3)CC2)ccc1Nc1ncc(Cl)c(Nc2ccccc2P(C)(C)=O)n1 [Brigatinib] (top concentration 1000 nM)	4.16	-3.24	0.26
CC1=NN(c2ccc(C(=O)O)cc2)C(=O)C1=Cc1ccc(-c2cc(C)c(C)cc2[N+](=O)[O-])o1 [C646] (top concentration 25000 nM)	5.04	15.1	-2.06
CCN1C(=O)CNc2ncc(-c3ccc(-c4nc[nH]n4)nc3C)nc21 [CC-115] (top concentration 10000 nM)	4.34	5.74	1.24
Cc1noc2c1-c1ccccc1C(c1ccc(Cl)cc1)=N[C@H]2CC(N)=O [CPI-0610] (top concentration 10000 nM)	7.9	-5.8	5.6
Cc1cc(Nc2ncc(Cl)c(Nc3ccccc3S(=O)(=O)C(C)C)n2)c(OC(C)C)cc1C1CCNCC1 [Ceritinib] (top concentration 2500 nM)	-0.94	-3.44	-0.74
Nc1nc(Cl)nc2c1ncn2[C@@H]1O[C@H](CO)[C@@H](O)[C@@H]1F [Clofarabine] (top concentration 10000 nM)	1.2	8.3	2.1
CC1(COc2ccc3c(c2)ncn3-c2ccc3cccc(N4CCC(N)CC4)c3n2)COC1 [Crenolanib] (top concentration 10000 nM)	7.78	-5.22	-4.02
Cc1nc(Nc2ncc(C(=O)Nc3c(C)cccc3Cl)s2)cc(N2CCN(CCO)CC2)n1 [Dasatinib] (top concentration 1000 nM)	-0.2	-2.8	3.3
CCc1cnn2c(NCc3ccc[n+]([O-])c3)cc(N3CCCC[C@H]3CCO)nc12 [Dinaciclib] (top concentration 1000 nM)	-6.64	-7.74	-2.04
COc1cccc2c1C(=O)c1c(O)c3c(c(O)c1C2=O)C[C@@](O)(C(=O)CO)C[C@@H]3O[C@H]1C[C@H](N)[C@H](O)[C@H](C)O1 [Doxorubicin] (top concentration 1000 nM)	-0.12	7.68	3.38
C=C1C[C@@H]2[C@H](CC[C@]3(C)C(=O)CC[C@@H]23)[C@@]2(C)C=CC(=O)C=C12 [Exemestane] (top concentration 10000 nM)	-1.9	2.3	1.5
COc1cc2c(Oc3ccc(NC(=O)C4(C(=O)Nc5ccc(F)cc5)CC4)cc3F)ccnc2cc1OCCCN1CCOCC1 [Foretinib] (top concentration 1000 nM)	10.8	-2.96	0.74
COc1cc(Nc2ncc(F)c(Nc3ccc4c(n3)N(COP(=O)(O)O)C(=O)C(C)(C)O4)n2)cc(OC)c1OC [Fostamatinib] (top concentration 2500 nM)	8.06	-2.84	2.96
CC1(C)OCCn2c1nc1c(N3CCOCC3)nc(-c3cnc(N)nc3)nc12 [GDC-0084] (top concentration 10000 nM)	11.8	6	7
CC(C)c1cc(-c2n[nH]c(=O)n2-c2ccc3c(ccn3C)c2)c(O)cc1O [Ganetespib] (top concentration 1000 nM)	3.84	6.04	2.34
CCc1nc(C(N)=O)c(Nc2ccc(N3CCC(N4CCN(C)CC4)CC3)c(OC)c2)nc1NC1CCOCC1 [Gilteritinib] (top concentration 1000 nM)	2.28	-2.52	-2.52
CCN(CC)Cc1ccc2cc(COC(=O)Nc3ccc(C(=O)NO)cc3)ccc2c1 [Givinostat] (top concentration 1000 nM)	3.9	10.6	1.2
